Read-outs that look alike come from different tables or passages of the source.
How the values were obtained:
[1] = Plasma concentration of inhibitor after a single subcutaneous injection; conditions: in vivo, sc, rat
Experimental: Six week-old male Sprague-Dawley rats weighing approximately 220 g were obtained from Charles-River, Inc. (St-Constant, Qc., Canada). The animals were housed 3 per cage. A pharmacokinetic study was carried out following one subcutaneous (s.c.) injection of the inhibitor at one concentration (2.3 mg/kg of body weight in 0.5 mL of vehicle fluid). The inhibitor was first dissolved in ethanol (EtOH) and thereafter we added propylene glycol (PG) to obtain a final concentration of EtOH of 8%. During this experiment, the rats were housed individually and were fasted for 8 h before inhibitor injection but allowed free access to water. Blood samples for determination of inhibitor plasma concentration were collected at the jugular vein (0.4 mL by animal) at target intervals of 3, 7, 12 and 24 h post-dose for Compound V and 3 and 12 h for CC-156, from three rats per time point. After the collection at 7 h, a replacement fluid (0.9% sodium chloride injection USP) was injected in the rat. Blood samples were collected into Microvette potassium-EDTA (ethylenediamine tetraacetic acid)-coated tube (Sarstedt, Aktiegesellchaft & Co, Germany) and centrifuged at 3200 rpm for 10 minutes at 4° C. The plasma was collected and stored at −80° C. until analyzed by liquid chromatography/mass spectrometry/mass spectrometry (LC/MS/MS) analysis.
The concentration of the inhibitors (Compounds I and V) was determined by LC/MS/MS analysis using a procedure developed at CHUQ (CHUL)-Research Center (Québec, Qc, Canada). Briefly, for extraction from serum, 100 μL of serum sample is transferred to individual tubes and 600 μL of ammonium acetate (1 mM) is added. A methanolic solution (50 μL) containing a steroidal internal standard is then added to each tube. Samples are transferred on Strata-X SPE columns (Phenomenex, Torrance, Calif., USA), which have been conditioned with 2 mL of methanol and 2 mL of water. Each column is washed with 2 mL of methanol:water (10:90, v/v). The inhibitor is then eluted with 5 mL of methanol containing 5 mM ammonium acetate. Methanol is evaporated at 45° C. under inert atmosphere and the residue dissolved in 100 μL of methanol:water (85:15, v/v). For the steroid analysis, the HPLC system uses a 75×4.6-mm, 3 μm reversed-phase Luna Phenyl-Hexyl column (Phenomenex, Torrance, Calif., USA) at a flow rate of 0.8 mL/min. The inhibitor is detected using an API 3000 mass spectrometer, equipped with TurbolonSpray (Applied Biosystems, Canada). ESI in positive ion mode was used. The area under the curve (AUC) was calculated using the linear trapezoidal rule.

17β-HSD1 = molecular target: T1, 17β-HSD1 (Homo sapiens, UniProt P14061); test: Inhibition of 17β-HSD1 in T-47D intact cells (E1 into E2); type: cell-based; conditions: for inhibition at 0.01 µM: read-out: Inhibition % (0.01 μM)
T1 construct: endogenous in cells; host or cells: T-47D
T1 sequence (P14061 1-328): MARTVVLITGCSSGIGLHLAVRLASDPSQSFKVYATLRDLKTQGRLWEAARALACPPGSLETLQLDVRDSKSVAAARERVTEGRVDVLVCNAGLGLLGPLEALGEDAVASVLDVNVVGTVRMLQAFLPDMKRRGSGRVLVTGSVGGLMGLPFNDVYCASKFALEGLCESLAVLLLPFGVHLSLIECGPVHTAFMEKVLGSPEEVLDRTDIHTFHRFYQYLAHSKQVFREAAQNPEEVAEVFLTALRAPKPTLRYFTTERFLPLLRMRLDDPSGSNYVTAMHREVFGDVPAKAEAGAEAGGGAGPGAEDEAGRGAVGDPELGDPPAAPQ
Experimental: T-47D cells were seeded in a 24-well plate (3000 cells/well) in medium supplemented with insulin (50 ng/mL) and 5% dextran-coated charcoal treated FBS rather than 10% FBS to remove remaining hormones. […] Each inhibitor was assessed in triplicate. After incubation, the culture medium was removed and labelled steroids (E1 and E2) extracted with 1 mL of diethyl ether. The organic phases were separated and evaporated to dryness using nitrogen. Residues were dissolved in dichloromethane and dropped on silica gel thin layer chromatography plates (EMD Chemicals Inc., Gibbstown, N.J., USA) and eluted with a toluene/acetone (4:1) solvent system. Substrate [^14C]-E1 and metabolite [^14C]-E2 were identified by comparison with reference steroids and quantified using a Storm 860 system (Molecular Dynamics, Sunnyvale, Calif., USA).
T-47D cells were seeded in a 24-well plate (3000 cells/well) in 990 μL of medium supplemented with insulin (50 ng/mL) and 5% dextran-coated charcoal-treated FBS, which was used rather than untreated 10% FBS, to remove the remaining steroid hormones. […] The final concentration of ethanol in the well was adjusted to 0.1%. Additionally, 5 μL of a solution of [^14C]-estrone (American Radiolabeled Chemicals, Inc., St. Louis, Mo., USA) was added to obtain a final concentration of 60 nM. […] After incubation, the culture medium was removed and labeled steroids (E1 and E2) were extracted with 1 mL of diethyl ether. The organic phases were evaporated to dryness with nitrogen. Residues were dissolved in dichloromethane and dropped on silica gel thin layer chromatography plates (EMD Chemicals Inc., Gibbstown, N.J., USA) and eluted with toluene/acetone (4:1) as solvent system. Substrate [^14C]-E1 and metabolite [^14C]-E2 were identified by comparison with reference steroids (E1 and E2) and quantified using the Storm 860 system (Molecular Dynamics, Sunnyvale, Calif., USA).

CYP3A4 = molecular target: T2, CYP3A4 (Homo sapiens, UniProt P08684); test: Inhibition of CYP3A4 (P450 Inhibition Kit CYP3A4/DBF); type: in vitro ADME
T2 construct: purchased BD Biosciences

MCF-7 cells = test: Estrogenic activity in MCF-7 cells; type: cell-based, human; conditions: 7 days, concentrations up to 5 μM
Experimental: MCF-7 cells were seeded with medium supplemented with insulin (50 ng/mL) and 5% dextran-coated charcoal treated FBS rather than 10% FBS to remove remaining hormones. Aliquots (100 μL) of the cell suspension were seeded in 96-well plates (3000 cells/well). […] Cells were grown either in the absence or presence of the compounds over a period of 7 days. Quantification of cell growth was determined by using the CellTiter 96®Aqueous Solution Cell Proliferation Assay (Promega, Nepean, ON, Canada) following the manufacturer's instructions. To determine the proliferative (estrogenic) activity, the cells were grown in the absence (control fixed as 100%) or presence of the tested compounds at the indicated concentrations.

T2 sequence (P08684 whole entry): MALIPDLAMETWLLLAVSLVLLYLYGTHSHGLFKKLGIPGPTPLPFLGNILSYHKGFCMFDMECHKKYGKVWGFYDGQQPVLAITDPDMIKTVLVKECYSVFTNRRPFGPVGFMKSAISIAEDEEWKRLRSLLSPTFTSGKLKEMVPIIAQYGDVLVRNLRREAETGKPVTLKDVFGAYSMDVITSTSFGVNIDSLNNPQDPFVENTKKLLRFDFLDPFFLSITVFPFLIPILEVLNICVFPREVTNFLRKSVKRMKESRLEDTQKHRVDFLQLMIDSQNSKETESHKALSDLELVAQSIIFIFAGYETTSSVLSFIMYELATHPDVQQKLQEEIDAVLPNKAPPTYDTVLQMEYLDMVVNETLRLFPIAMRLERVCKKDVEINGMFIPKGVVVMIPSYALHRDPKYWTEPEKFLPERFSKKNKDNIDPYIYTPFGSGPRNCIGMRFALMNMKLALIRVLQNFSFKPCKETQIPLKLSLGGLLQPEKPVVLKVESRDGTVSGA

SMILES | concentration at 7 h ([1]; male, Sprague-Dawley, s.c. 2.3 mg/kg, 7 h) [ng/mL] | concentration at 12 h ([1]; male, Sprague-Dawley, s.c. 2.3 mg/kg, 12 h) [ng/mL] | concentration at 24 h ([1]; male, Sprague-Dawley, s.c. 2.3 mg/kg, 24 h) [ng/mL] | AUC(0-t) ([1]; male, Sprague-Dawley, s.c. 2.3 mg/kg, read-out: AUC0-24 h) [ng·h/mL] | inhibition at 0.01 µM (17β-HSD1; T47D) [%] | inhibition at 0.1 µM (17β-HSD1; T47D, read-out: Inhibition % (0.1 μM)) [%] | inhibition at 0.1 µM (17β-HSD1; T47D, read-out: Inhibition (0.1 μM)) [%] | inhibition at 1 µM (17β-HSD1; T47D, read-out: Inhibition (1 μM)) [%] | IC50 (17β-HSD1; T-47D intact cells, [14C]-E1 60 nM) [nM] | IC50 (CYP3A4) [nM] | estrogenic activity on MCF-7 cells (FIG. 1) (MCF-7 cells) | time at which maximum plasma concentration (Cmax) was attained ([1]; 2.3 mg/kg) [h] | inhibition at 0.01 µM (17β-HSD1; T47D, [14C]-E1 (60 nM) into [14C]-E2, T-47D intact cells, 0.01 μM) [%] | inhibition at 0.1 µM (17β-HSD1; T47D, [14C]-E1 (60 nM) into [14C]-E2, T-47D intact cells, 0.1 μM, read-out: Inhibition % (0.1 μM)) [%] | IC50 (CYP3A4; read-out: IC50 on CYP3A4) [nM]
C[C@]12CC[C@@H]3c4ccc(CCBr)cc4CC[C@H]3[C@@H]1C[C@H](Cc1cccc(C(N)=O)c1)[C@@H]2O [Compound V, 3-{[(16β,17β)-3-(2-bromoethyl)-17-hydroxyestra-1(10),2,4-trien-16-yl]methyl}benzamide] | 73.8 | 50.7 | 11.7 | 1150 | 23 | 49 | 56 | 89 | 68 | 4060 ± 570 | no estrogenicity | – | – | – | –
C[C@]12CC[C@@H]3c4ccc(O)cc4CC[C@H]3[C@@H]1C[C@H](Cc1cccc(C(N)=O)c1)[C@@H]2O [Compound I, 16β-(m-carbamoylbenzyl)estradiol, reference compound] | – | – | – | – | – | – | – | – | – | – | strongly stimulated the estrogen sensitive MCF-7 cells | 3 | 35 | 66 | 1520 ± 290

— US11072632B2, “Inhibitors of 17β-HSD1, 17β-HSD3 and 17β-HSD10” (UNIVERSITÉ LAVAL, priority 2011, dated 2021)
